# From patent US8916607B2, “Use of piperphentonamine or salts thereof in manufacture of medicaments for treating brain diseases” (Guangzhou Municipal Zhongwei Biotechnology Limited Company, priority 2009, dated 2014)
# Marks after values point to notes of the source that are not given here.
# Columns and labels:
# [1] = system: cerebral ischemia/reperfusion injury in mice; test: focal cerebral ischemia reperfusion injury model in mice (suture method), TTC infarction area; format: in vivo
# Procedure: Focal cerebral ischemia reperfusion injury model is made in mice by using suture method, being ischemia for 2 h, then reperfusing for 24 h, and it proves that piperphentonamine hydrochloride has protective effect on ischemia-reperfusion cerebral injury.
# Mouse is anesthetized by injecting 10% chloral hydrate (350 mg/kg) in intraperitoneal, being intravenously administered 1 mg/kg, 5 mg/kg piperphentonamine hydrochloride or 20 u/kg coenzyme A, (COA), making the cerebral artery ischemia like as the method of example 6. Pulling out nylon thread from the internal carotid artery after the operation in 2 hours, until the end of the nylon thread is at bifurcation of the common carotid artery. Reperfusing for 24 hours. Except for not inserting a thread, the rest of steps for the false operation group are same as the above-mentioned. After reperfusion for 24 h, decapitating and taking the brain of survived mice, rapidly putting in −20° C. freezer for 5 min, then removing, quickly cutting coronal slices of 2.0 mm thickness from forward to back on the operating table, putting the slices in phosphate buffer solution with 1% TTC immediately, incubating for 30 min in avoiding light at room temperature. Flip brain slices to make them touch staining solution uniformly every 10 minute, and scanning and observing the dyeing results.
# The local cerebral ischemia model of mice was established by using thread bolt method, to validate that piperphentonamine acetate has protective effect on experimental cerebral ischemia animal.
# [2] = system: cultured cerebral neurons; test: NMDA induces neuron injury in primary cultured neurons; format: cell-based, rat; details: drug 50 mmol/L; NMDA 50 mmol/L, 12 h
# [3] = system: infective brain edema of rats (pertussis bacteria liquid); test: infective cerebral edema: IL-1β, TNF-α (ELISA) and NO (Griess) in cerebral tissue; format: in vivo, SD rats; details: pretreatment 0.5 mg/kg ip daily for 2 days; rat brain tissue, 4 h
# Procedure: Determine the content of IL-1β, TNF-α and NO by using ELISA and Griess method.
# Model preparation was same as that of example 4. Piperphentonamine acetate group was intraperitoneally injected with 0.5 mg/kg daily for 2 days 48 h before the injection of pertussis bacterial liquid. Rats in each group were decollated after being injected with bacterial liquid or saline 4 h. ELISA method and Griess method were used to measure the content of IL-1β, TNF-α and NO in brain homogenate of infectious brain edema model of rats.
# [4] = system: infective brain edema of rats (pertussis bacteria liquid); test: infective cerebral edema by pertussis bacteria liquid: brain water, sodium and potassium ion content; format: in vivo, SD rats; parameters: Na^+ / K^+: unit not given here; details: pretreatment 0.5 mg/kg ip daily for 2 days; 4 h after bacterial liquid
# [5] = system: cerebral edema of mice caused by closed cerebral trauma; test: closed cerebral trauma model of mice, brain water content; format: in vivo, Kunming mice; details: method as example 2
# Procedure: There were 10 mice in each group.
# The closed cerebral trauma model of mice being established after fasting for 16 hours, administering intravenously to each group, striping and taking the brain of mouse after 24 hours, weighing the wet weight, and drying at 70° C. for 24 hours, then weighing the dry weight, and calculating brainwater content; the brain water content which is higher than normal values indicates the cerebral edema.
# The grouping method, administer method and model preparation were referred to example 2.
# [6] = system: cerebral hemorrhage in rats induced by collagenase; test: ICH model induced by collagenase: NE in brain tissue by ELISA; format: in vivo, Wistar rats; details: 0.5 mg/kg; ICH rat brain tissue homogenate
# Excerpt: (§1) Rats in each group were anesthetized by chloral hydrate, decollated rapidly and the brains were taken out. The brain tissue around the hole was cut and procured, weighed precisely, and made into a 10% tissue homogenate using a glass homogenizer in an ice bath environment with physiological saline as homogenized medium, the supernatant of which was taken to be determined the NE activity using ELISA method.
# [7] = system: cerebral hemorrhage in rats induced by collagenase; test: ICH model induced by collagenase: brain water content (BWC); format: in vivo, Wistar rats; details: 0.5 mg/kg iv 30 min before ICH
# Procedure: (§2) Animals are randomly divided into five groups: sham operation 24 h group; cerebral hemorrhage (Intracerebral Haemorrhage, ICH)+physiological saline group (model); ICH+piperphentonamine hydrochloride (JBTA, 2 mg/kg) group, called as high dose group (h); ICH+piperphentonamine hydrochloride (JBTA, 0.5 mg/kg) group, called as low dose group (1); ICH+nimodipine (Nim, 0.5 mg/kg) group. The last four groups are divided into 4 h, 8 h, 12 h, 24 h as four time subgroups respectively. Physiological saline solution, piperphentonamine hydrochloride and nimodipine are intravenously injected from rat tail before the ICH model is established for 30 minutes, once a day. Injecting slowly, the total amount of drug liquid is controlled in 1 ml/200 g body weight: physiological saline solution also being administered in 1 ml/200 g body weight. Each group has 7 Wistar rats.
# Observing the influence of piperphentonamine hydrochloride on the brain water content of intracerebral hemorrhage in rats in 4 h, 8 h, 12 h, 24 h, the animals of the different groups is anesthetized by chloral hydrate at predetermined time point, and decollating and taking the brain rapidly, putting the brain tissue on a filter paper wetted by saline solution to prevent water evaporating. Removing the leptomeninges and blood, cutting and taking the front half portion of brain tissue centered by the hole for the insertion needle, weighing precisely (accurate to 0.1 mg). It is controlled in 5 min to take the brain to finish weigh. Then putting in 95° C. constant temperature oven for 24 h, weighing the dry weight. The brain water content is calculated according to Blliot formula: BWC=(wet weight−dry weight)/wet weight×100%.
# (§3) Divide the animals randomly into five groups: sham operation (sham) 24 h group; ICH+normal saline group (model); ICH+piperphentonamine maleate (4 mg/kg) group, namely high dose group (h); ICH+piperphentonamine maleate (2 mg/kg) group, namely low dose group (1); ICH+nimodipine (0.5 mg/kg) group. The last four groups were divided into four time subgroup of 4 h, 8 h, 12 h and 24 h. Physiological solution, piperphentonamine maleate and nimodipine were injected intravenous from rat tail vein 30 minutes before the ICH model made, once a day. Inject slowly, the total amount of drug liquid was controlled in 1 ml/200 g body weight: normal saline was also administered in 1 ml/200 g body weight. Each group has seven Wistar rats.
# [8] = system: infectious cerebral edema of rats (pertussis bacteria liquid); test: infectious cerebral edema: brain water content and Evans blue content, combination with nimodipine; format: in vivo, SD rats; details: JBTA pretreatment 0.5 mg/kg iv, 2 times
# Procedure: The model of infectious cerebral edema is same with example 4. It is Studied that piperphentonamine hydrochloride and a blocker for specificity L-type calcium ion channel nimodipine influence on the brain water content and Evans blue (EB) content of infectious cerebral edema, of which the purpose is to provide experimental and theoretical basis for clinical treatment.
# Each group is further divided into three time group such as 30 min, 4 h and 24 h group.
# Injecting intravenously nimodipine after injecting bacteria for 5 min (Nim group, body weight 0.25 mg/kg), 24 h nimodipine treatment group is repeatedly injected the same dose once per 8 h; nimodipine treatment group pretreated by piperphentonamine hydrochloride is intravenously infused piperphentonamine hydrochloride (0.5 mg/kg, 2 times in total) before experimenting for 48 h and 24 h, then treated with nimodipine after the pretreatment. The operation of physiological saline group being same as bacteria liquid group, is injected the same volume of physiological saline at the same time. 2% Evans blue (EB, 0.2 mL/100 g body weight) is injected from the vein of the sublingua after injecting bacteria or saline in 10 min. Each group of animal is executed by decollating after observing to the specified time, rapidly removed the brain, and remove the leptomeninges and coagulation block of the cortical surface, taking full-thickness brain tissue of the back ⅓ of left hemisphere of the brain (about 0.1˜0.2 g, including gray matter and white matter) as specimens, the water content in brain tissue and the Evans blue content are determined by the dry wet method, and brain tissue is examined by electron microscope.
# [9] = system: cerebral hemorrhage in rats induced by collagenase; test: cerebral hemorrhage (ICH) model induced by collagenase: neurology score; format: in vivo, Wistar rats; details: 0.5 mg/kg iv 30 min before ICH
# Procedure: as §2
# The specific steps are as following: after the experimental rats are anesthetized by injecting chloral hydrate (350 mg/kg) in intraperitoneal, and being supinely immobilized in a stereotaxic instrument, and make the rat anterior fontanelle and posterior fontanelle in the same plane according to localization method reported by BAO Xinmin, etc. Being locally disinfected by iodine, incising in the midmost of scalp, scissoring the periosteum, exposing the anterior fontanelle, drilling a 1 mm diameter hole with thickness close to duramater in 3 mm left to the midline by number five needle. Inserting needle along the hole by the micro syringe fixed on a stereotaxic, the depth of needle insertion is 5.8 mm (i.e., the caudate nucleus position), slowly injecting collagenase VI 0.5 U. Injection time is 3 min, keeping for 5 min after injection, then pull the needle out, suturing the skin, and putting the rat into cage and feed. Inserting the needle and not injecting drugs in sham operation group, the remaining operations is the same as the above.
# After animals wake up, scoring nerve function defect of each group immediately according to the grading classification standards of nerve defect reported by Bedersog (litter improved).
# Choosing the animals with the score of 3 and more into the experiment, the animals are bred in different cages, eat and drink normally. Temperature is controlled in 20 to 25° C., score in 4 h, 8 h, 12 h, 24 h after establishment of the model.
# as §3
# [10] = system: cerebral hemorrhage in rats induced by collagenase; test: ICH model induced by collagenase: NO in brain tissue by nitrate reductase method; format: in vivo, Wistar rats; details: 0.5 mg/kg; ICH rat brain tissue
# Excerpt: as §1, with “brain take” for “brains”, “content of NO by nitrate reductase” for “NE activity using ELISA”
# [11] = 24 h, Nim 0.25 mg/kg iv once per 8 h
compound,measurement,setting,value
"Nc1ncnc2c1ncn2[C@@H]1O[C@H](COP(=O)(O)OP(=O)(O)OP(=O)(O)O)[C@@H](O)[C@H]1O [ATP, reference compound]",The percentage of infarction area occupied the entire coronal plane (%),"[1]; 5 mg/kg, method as example 7 (example 16)",20.53 ± 4.82 %
"CC(C)(COP(=O)(O)OP(=O)(O)OC[C@H]1O[C@@H](n2cnc3c(N)ncnc32)[C@H](O)[C@@H]1OP(=O)(O)O)[C@@H](O)C(=O)NCCC(=O)NCCS [CoA, coenzyme A, reference compound]",The percentage of infarction area occupied the entire coronal plane (%),"[1]; 20 U/kg iv, ischemia 2 h, reperfusion 24 h",20.53 ± 4.82 %
"CC1=NN(c2ccccc2)C(=O)C1 [Edaravone Injection, edaravone, reference compound]",The percentage of infarction area occupied the entire coronal plane (%),"[1]; 3 mg/kg, method as example 7 (example 16)",18.43 ± 3.56 %
"Ganglioside [GM, reference compound]",morphological change of culture neuron (protection function),[2],equal to the one of piperphentonamine hydrochloride 10 mmol/L
same,mortality,[2],40%
CC(=O)O.CN(CCC(=O)/C=C/c1ccc(O)cc1)CCc1ccc2c(c1)OCO2 [piperphentonamine acetate],IL-1β,[3],197.1 ± 27.1^2)3) pg/g
same,NO,[3],53.3 ± 3.71^2)3) nmol/g
same,TNF-α,[3],309.3 ± 83.5^2)3) pg/g
same,K^+,[4],396.6 ± 39.9
same,Na^+,[4],164.7 ± 23.7
same,brain water content (%),[4],63.44 ± 0.4^3) %
same,The percentage of infarction area occupied the entire coronal plane (%),"[1]; 4 mg/kg, thread bolt method (example 15)",18.12 ± 2.64^ΔΔ %
CN(CCC(=O)/C=C/c1ccc(O)cc1)CCc1ccc2c(c1)OCO2.O=C(O)CC(O)(CC(=O)O)C(=O)O [piperphentonamine citrate],The percentage of infarction area occupied the entire coronal plane (%),"[1]; treated group (C), dose not given, model as example 7",16.88 ± 2.48**^ΔΔ %
same,brain water content (%),[5]; 2 mg/kg,80.32 ± 7.72 %
same,brain water content (%),[5]; 4 mg/kg,78.84 ± 9.48 %
same,brain water content (%),[5]; 8 mg/kg,75.28 ± 6.48 %
"COCCOC(=O)C1=C(C)NC(C)=C(C(=O)OC(C)C)C1c1cccc([N+](=O)[O-])c1 (stereo not shown) [nimodipine, reference compound]",NE,[6],1.88 ± 0.035^a ng/ml
same,brain water content (%),[7]; 4 h,79.31 ± 0.76 %
same,brain water content,"[7]; 4 h (example 12), in %",62.20 ± 0.59
same,brain water content (%),[7]; 8 h,79.95 ± 0.36^Δ** %
same,brain water content,[7]; 8 h (example 12),62.70 ±0.25^Δ**
same,brain water content (%),[7]; 12 h,81.35 ± 0.71^ΔΔ** %
same,brain water content,[7]; 12 h (example 12),63.8 ± 0.56^ΔΔ**
same,brain water content (%),[7]; 24 h,82.89 ± 0.68^ΔΔ** %
same,brain water content,[7]; 24 h (example 12),65.02 ± 0.54^ΔΔ**
same,BWC(%),"[8]; 30 min, Nim 0.25 mg/kg iv",77.26 ± 0.34 %
same,EB,"[8]; 30 min, Nim 0.25 mg/kg iv",2.0 ± 0.18 μg/g ww
same,BWC(%),"[8]; 4 h, Nim 0.25 mg/kg iv",77.15 ± 0.66 %
same,EB,"[8]; 4 h, Nim 0.25 mg/kg iv",2.65 ± 0.44 μg/g ww
same,BWC(%),[8]; [11],76.98 ± 0.50 %
same,EB,[8]; [11],2.00 ± 0.6 μg/g ww
same,neurological score,[9]; 4 h,4.5 ± 0.87
same,neurological score,[9]; 4 h (example 12),3.65 ± 0.8
same,neurological score,[9]; 8 h,4.07 ± 1.14
same,neurological score,[9]; 8 h (example 12),3.25 ± 0.91
same,neurological score,[9]; 12 h,2.57 ± 1.14
same,neurological score,[9]; 12 h (example 12),2.05 ± 0.91
same,neurological score,[9]; 24 h,1.94 ± 0.74
same,neurological score,[9]; 24 h (example 12),1.55 ± 0.59**^Δ
same,NO,[10],2.40 ± 0.05^Δ μmol/g pro
